Earlier results in US8740762B2, “Specific inhibition of cPLA2 enhances the efficacy of radiotherapy” (Vanderbilt University, priority 2007, dated 2014).

How the values were obtained:
pro-survival kinases = details: 20 μM

Substance: lysophosphatidylcholine [LPC]
- cell death (HUVEC; concentrations higher than 25 μM): promote cell death
- proliferation of HUVEC (HUVEC; up to 25 μM): increase proliferation
- activation of pro-survival kinases (pro-survival kinases): activated the same pro-survival kinases
